The subject of assay [1] is ovariectomy-induced osteopenic rats and monkeys. Particulars: ovariectomy-induced osteopenic rats and monkeys (Doyle 2013a; Doyle 2013b; Hattersley 2013); cited from earlier work.
A further assay deals with treated subjects. Particulars: subcutaneous administration; cited from earlier work.
The next assay has as its system rat femur fracture model. The experiment in a line: Rat femur fracture model (fracture healing). The assay is classed as in vivo. An excerpt: Certain embodiments of the methods disclosed herein also include the use of the microprojection arrays as described herein in their various embodiments to accelerate fracture healing in a patient who has suffered one or more fractures and for which the fractures are not completely healed. Healing of bone fractures (eg long bone fractures) involves endochondral and intramembranous bone formation, which together form a callus that achieves union, stabilization, and gradual recovery of bone strength. […] Sixteen rats from each group were necropsied after 4 and 6 weeks of healing, with 12 fractured femurs per group used for micro-CT and biomechanical testing and the other 4 femurs used for micro-CT and histology.

The mark [2] stands for this setting: 25 ug/kg/d sc daily, week 4, P<0.05 vs VEH.

We go through one substance from US20210369816A1, “FORMULATIONS OF ABALOPARATIDE, TRANSDERMAL PATCHES THEREOF, AND USES THEREOF” (priority 2016, published 2021).

Regarding “[Glu^22,25, Leu^23,28,31, Aib^29, Lys^26,30]hPTHrP(1-34)NH2 [abaloparatide]”, the bone loss result in assay [1] is reported as “complete reversal of bone loss”. Besides, the “bone mineral density (BMD) and/or trabecular bone score (TBS) at the lumbar spine, total hip, and femoral neck” value in the assay on treated subjects is “improve”. For the same substance, the “callus stiffness, higher vs VEH (three-point bending)” value stood at 60% with rat femur fracture model (5 ug/kg/d sc daily, week 4, P<0.05 vs VEH); 112% with rat femur fracture model (5 ug/kg/d sc daily, week 6, P<0.05 vs VEH); 96% with rat femur fracture model (setting [2]). Moreover, in the assay on rat femur fracture model (setting [2]), the “callus peak load, higher vs VEH” value worked out at 77%. Further, in the assay with rat femur fracture model (5 and 25 ug/kg/d, week 4), the “callus area (histomorphometry) vs VEH” value is reported as “significantly greater callus area”. Further, the “micro-CT of fracture calluses vs VEH” value in the assay on rat femur fracture model (5 and 25 ug/kg/d, weeks 4 and 6) is “significantly greater callus bone volume, bone volume fraction, and BMC”. Moreover, in the assay on rat femur fracture model (5 or 25 ug/kg/d, week 4), the “histologic scoring of cortical bridging across the fracture gap vs VEH” value was “significantly greater bridging”. The “callus peak load vs VEH” value in the assay with rat femur fracture model (both abaloparatide groups (5 and 25 ug/kg/d), week 6) is reported as “numerically higher”.
